Target: T1, human MRGPRX2 (Homo sapiens, UniProt Q96LB1)
T1 construct: expressed in transfected cells; host or cells: CHO cells, stably transfected (G418 and Hygromycin B selection)
T1 sequence (Q96LB1 1-330): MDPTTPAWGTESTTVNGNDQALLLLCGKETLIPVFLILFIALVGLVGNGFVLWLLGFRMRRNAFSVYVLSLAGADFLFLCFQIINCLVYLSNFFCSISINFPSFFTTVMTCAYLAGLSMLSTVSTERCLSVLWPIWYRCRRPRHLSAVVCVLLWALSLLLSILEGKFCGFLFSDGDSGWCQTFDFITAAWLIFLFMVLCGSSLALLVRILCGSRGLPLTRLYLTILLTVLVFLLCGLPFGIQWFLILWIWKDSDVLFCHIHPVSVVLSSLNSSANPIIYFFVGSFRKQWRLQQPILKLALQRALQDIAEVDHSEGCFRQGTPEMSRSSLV
Assay: MRGPRX2 activity: IP-One Gq HTRF assay in CHO cells, antagonism versus 0.3 uM Cortistatin-14
Type: cell-based
Conditions: versus 0.3 uM Cortistatin-14 agonist, CHO cells expressing human MRGPRX2, read-out: MRGPRX2 Antagonist Activity
Procedure, shortened: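 CHO cells stably expressing human MRGPRX2 were treated with a 10-point compound curve (30 uM top, 1:3) plus 0.3 μM Cortistatin-14 in LiCl-containing Tris buffer, pH 8. Incubation was 1 h at 37 °C then 1 h at room temperature; IP-1 was detected by HTRF and IC50 came from the HTRF ratio.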

Row | Compound | IC50
1 | CC(C)CC(C)c1c(F)ccc2c1NC(NCc1cccc(F)c1)=NS2(=O)=O (stereo not drawn) [Compound 22-4, 6-fluoro-3-((3-fluorobenzyl)amino)-5-(4-methylpentan-2-yl)-4H-benzo[e][1,2,4]thiadiazine 1,1-dioxide] | < 100 nM
2 | N#Cc1ccc2c(c1Oc1ccccc1F)NC(NCc1ncccc1Cl)=NS2(=O)=O [Compound 3-1, 3-(((3-chloropyridin-2-yl)methyl)amino)-5-(2-fluorophenoxy)-4H-benzo[e][1,2,4]thiadiazine-6-carbonitrile 1,1-dioxide] | < 100 nM
3 | Cc1ccc(C(C)c2c(F)ccc3c2NC(NCc2cccc(F)c2)=NS3(=O)=O)cn1 (stereo not drawn) [Compound 22-24, 6-fluoro-3-((3-fluorobenzyl)amino)-5-(1-(6-methylpyridin-3-yl)ethyl)-4H-benzo[e][1,2,4]thiadiazine 1,1-dioxide] | < 100 nM
4 | O=S1(=O)N=C(NCc2ccc(F)c(F)c2)Nc2c(Cc3ccccc3Cl)cccc21 [Compound 12-14, 5-(2-chlorobenzyl)-3-((3,4-difluorobenzyl)amino)-4H-benzo[e][1,2,4]thiadiazine 1,1-dioxide] | < 100 nM
5 | O=S1(=O)N=C(NCc2ncccc2O)Nc2c1cc(F)c(F)c2Cc1ccccc1Cl [Compound 4-18, 5-(2-chlorobenzyl)-6,7-difluoro-3-(((3-hydroxypyridin-2-yl)methyl)amino)-4H-benzo[e][1,2,4]thiadiazine 1,1-dioxide] | > 2500 nM
6 | O=S1(=O)N=C(NCc2cc(F)ccc2F)Nc2c1cc(F)c(F)c2Cc1ccccc1Cl [Compound 4-10, 5-(2-chlorobenzyl)-3-((2,5-difluorobenzyl)amino)-6,7-difluoro-4H-benzo[e][1,2,4]thiadiazine 1,1-dioxide] | 100 to 500 nM
7 | O=S1(=O)N=C(NCc2ncccc2F)Nc2c1ccc(F)c2Oc1ccc(F)cc1 [Compound 2-7, 6-fluoro-5-(4-fluorophenoxy)-3-(((3-fluoropyridin-2-yl)methyl)amino)-4H-benzo[e][1,2,4]thiadiazine 1,1-dioxide] | 100 to 500 nM
8 | COc1ccc(C(C)c2c(F)ccc3c2NC(NCc2cccc(F)c2)=NS3(=O)=O)c(F)c1 (stereo not drawn) [Compound 22-7, 6-fluoro-5-(1-(2-fluoro-4-methoxyphenyl)ethyl)-3-((3-fluorobenzyl)amino)-4H-benzo[e][1,2,4]thiadiazine 1,1-dioxide] | < 100 nM
9 | O=S1(=O)N=C(NCc2ccccc2F)Nc2c(C3(c4ccccc4)CC3)cccc21 [Compound 6-19, 3-((2-fluorobenzyl)amino)-5-(1-phenylcyclopropyl)-4H-benzo[e][1,2,4]thiadiazine 1,1-dioxide] | < 100 nM
10 | O=S1(=O)N=C(NCc2cccc(Cl)c2F)Nc2c1cc(F)c(F)c2Cc1ccccc1Cl [Compound 4-14, 3-((3-chloro-2-fluorobenzyl)amino)-5-(2-chlorobenzyl)-6,7-difluoro-4H-benzo[e][1,2,4]thiadiazine 1,1-dioxide] | 100 to 500 nM
11 | COc1ccc(F)c(CNC2=NS(=O)(=O)c3ccc(F)c(Oc4ccccc4Cl)c3N2)n1 [Compound 1-21, 5-(2-chlorophenoxy)-6-fluoro-3-(((3-fluoro-6-methoxypyridin-2-yl)methyl)amino)-4H-benzo[e][1,2,4]thiadiazine 1,1-dioxide] | 501 to 1000 nM
12 | O=S1(=O)N=C(NCc2ncccc2F)Nc2c(NCc3ccccc3Cl)cccc21 [Compound 17-1, 5-((2-chlorobenzyl)amino)-3-(((3-fluoropyridin-2-yl)methyl)amino)-4H-benzo[e][1,2,4]thiadiazine 1,1-dioxide] | > 2500 nM
13 | CC(c1ccc(F)cc1)c1c(F)ccc2c1NC(NCc1ncccc1F)=NS2(=O)=O (stereo not drawn) [Compound 8-2, 6-fluoro-5-(1-(4-fluorophenyl)ethyl)-3-(((3-fluoropyridin-2-yl)methyl)amino)-4H-benzo[e][1,2,4]thiadiazine 1,1-dioxide] | < 100 nM
14 | COc1ccccc1C(C)c1c(F)ccc2c1NC(NCc1cccc(F)c1)=NS2(=O)=O (stereo not drawn) [Compound 22-26, 6-fluoro-3-((3-fluorobenzyl)amino)-5-(1-(2-methoxyphenyl)ethyl)-4H-benzo[e][1,2,4]thiadiazine 1,1-dioxide] | < 100 nM
15 | Cc1cccc(Cc2cccc3c2NC(NCc2ccccc2F)=NS3(=O)=O)c1 [Compound 6-10, 3-((2-fluorobenzyl)amino)-5-(3-methylbenzyl)-4H-benzo[e][1,2,4]thiadiazine 1,1-dioxide] | < 100 nM
16 | O=S1(=O)N=C(NCc2ncccc2F)Nc2c1ccc(F)c2CCc1ccccc1 [Compound 6-1, 6-fluoro-3-(((3-fluoropyridin-2-yl)methyl)amino)-5-phenethyl-4H-benzo[e][1,2,4]thiadiazine 1,1-dioxide] | 100 to 500 nM
17 | COc1ccccc1CNC1=NS(=O)(=O)c2cccc(Cc3ccccc3Cl)c2N1 [Compound 12-24, 5-(2-chlorobenzyl)-3-((2-methoxybenzyl)amino)-4H-benzo[e][1,2,4]thiadiazine 1,1-dioxide] | < 100 nM

Row | Compound | IC50
18 | O=S1(=O)N=C(NCc2ccccc2F)Nc2c(CCc3ccccc3)cccc21 [Compound 6-18, 3-((2-fluorobenzyl)amino)-5-phenethyl-4H-benzo[e][1,2,4]thiadiazine 1,1-dioxide] | < 100 nM
19 | O=S1(=O)N=C(NCc2ccccc2Cl)Nc2c(Cc3ccccc3Cl)cccc21 [Compound 12-1, 5-(2-chlorobenzyl)-3-((2-chlorobenzyl)amino)-4H-benzo[e][1,2,4]thiadiazine 1,1-dioxide] | < 100 nM
20 | O=S1(=O)N=C(NCc2cccc3ccccc23)Nc2c1cc(F)c(F)c2Cc1ccccc1Cl [Compound 4-20, 5-(2-chlorobenzyl)-6,7-difluoro-3-((naphthalen-1-ylmethyl)amino)-4H-benzo[e][1,2,4]thiadiazine 1,1-dioxide] | 501 to 1000 nM
21 | O=S1(=O)N=C(NCc2cccnc2C(F)(F)F)Nc2c(Cc3ccccc3Cl)cccc21 [Compound 12-31, 5-(2-chlorobenzyl)-3-(((2-(trifluoromethyl)pyridin-3-yl)methyl)amino)-4H-benzo[e][1,2,4]thiadiazine 1,1-dioxide] | < 100 nM
22 | O=S1(=O)N=C(NCc2ccccc2F)Nc2c(Cc3ccccc3Cl)cccc21 [Compound 6-2, 5-(2-chlorobenzyl)-3-((2-fluorobenzyl)amino)-4H-benzo[e][1,2,4]thiadiazine 1,1-dioxide] | < 100 nM
23 | COc1cccc(CNC2=NS(=O)(=O)c3ccc(F)c(Oc4ccccc4Cl)c3N2)c1 [Compound 1-3, 5-(2-chlorophenoxy)-6-fluoro-3-((3-methoxybenzyl)amino)-4H-benzo[e][1,2,4]thiadiazine 1,1-dioxide] | 100 to 500 nM
24 | CC(c1ccccc1F)c1c(F)ccc2c1NC(NCc1cccc(F)n1)=NS2(=O)=O (stereo not drawn) [Compound 9-5, 6-fluoro-5-(1-(2-fluorophenyl)ethyl)-3-(((6-fluoropyridin-2-yl)methyl)amino)-4H-benzo[e][1,2,4]thiadiazine 1,1-dioxide] | < 100 nM
25 | COc1cccc(C(C)c2c(F)ccc3c2NC(NCc2cccc(F)c2)=NS3(=O)=O)n1 (stereo not drawn) [Compound 22-6, 6-fluoro-3-((3-fluorobenzyl)amino)-5-(1-(6-methoxypyridin-2-yl)ethyl)-4H-benzo[e][1,2,4]thiadiazine 1,1-dioxide] | < 100 nM
26 | Cc1ccc(CNC2=NS(=O)(=O)c3cccc(Cc4ccccc4Cl)c3N2)c(C)c1 [Compound 12-8, 5-(2-chlorobenzyl)-3-((2,4-dimethylbenzyl)amino)-4H-benzo[e][1,2,4]thiadiazine 1,1-dioxide] | < 100 nM
27 | O=S1(=O)N=C(NCc2ccccc2F)Nc2c1cc(F)c(F)c2Cc1ccccc1Cl [Compound 4-6, 5-(2-chlorobenzyl)-6,7-difluoro-3-((2-fluorobenzyl)amino)-4H-benzo[e][1,2,4]thiadiazine 1,1-dioxide] | 100 to 500 nM
28 | Cc1ccc(C(C)c2c(F)ccc3c2NC(NCc2cccc(F)c2)=NS3(=O)=O)o1 (stereo not drawn) [Compound 22-10, 6-fluoro-3-((3-fluorobenzyl)amino)-5-(1-(5-methylfuran-2-yl)ethyl)-4H-benzo[e][1,2,4]thiadiazine 1,1-dioxide] | < 100 nM
29 | O=S1(=O)N=C(NCc2ncccc2F)Nc2c1ccc(F)c2Oc1ccc(Cl)cc1Cl [Compound 1-16, 5-(2,4-dichlorophenoxy)-6-fluoro-3-(((3-fluoropyridin-2-yl)methyl)amino)-4H-benzo[e][1,2,4]thiadiazine 1,1-dioxide] | 100 to 500 nM
30 | CC(c1ccccc1F)c1c(F)ccc2c1NC(NCc1cccnc1)=NS2(=O)=O (stereo not drawn) [Compound 7-3, 6-fluoro-5-(1-(2-fluorophenyl)ethyl)-3-((pyridin-3-ylmethyl)amino)-4H-benzo[e][1,2,4]thiadiazine 1,1-dioxide] | 100 to 500 nM
31 | COc1cccnc1CNC1=NS(=O)(=O)c2cccc(Cc3ccccc3Cl)c2N1 [Compound 12-25, 5-(2-chlorobenzyl)-3-(((3-methoxypyridin-2-yl)methyl)amino)-4H-benzo[e][1,2,4]thiadiazine 1,1-dioxide] | < 100 nM
32 | O=S1(=O)N=C(NCc2ncccc2F)Nc2c1ccc(F)c2Oc1c(F)cccc1Cl [Compound 1-17, 5-(2-chloro-6-fluorophenoxy)-6-fluoro-3-(((3-fluoropyridin-2-yl)methyl)amino)-4H-benzo[e][1,2,4]thiadiazine 1,1-dioxide] | 100 to 500 nM
33 | O=S1(=O)N=C(NCc2ccccc2F)Nc2c(Cc3ccccc3F)cccc21 [Compound 6-6, 5-(2-fluorobenzyl)-3-((2-fluorobenzyl)amino)-4H-benzo[e][1,2,4]thiadiazine 1,1-dioxide] | < 100 nM

Source: patent US20250170141A1, “MRGPRX2 MODULATORS AND RELATED METHODS OF TREATMENT” (Escient Pharmaceuticals, Inc., priority 2023, published 2025)
